Measured values published in patent US11578040B2, “[5]Helicene derivatives as molecular reporters for diagnostic applications and methods of synthesis therefor” (NATIONAL SCIENCE AND TECHNOLOGY DEVELOPMENT AGENCY, priority 2016, dated 2023).

Key:
antigen = assay: Testing of binding reactivity of antibody after conjugation with molecular reporter on 96-well plates (HRP-labeled anti-mouse antibody, signal at 450 nm); conditions: 2 μg/mL conjugated antibody, antigen-coated 96-well plate
Procedure: The binding reactivity of antibody conjugating molecular reporter (compound 6, compound 8, and compound 14) to antigen could be tested with an immobilization of antigen on wells of 96-well plates. The molecular reporter conjugated antibody was added into the wells. The antibody would bind to the antigen coating wells. Horseradish peroxidase labeled antibody specific to mouse antibody was used as a reporter molecule for reporting binding reactivity. The results of molecular reporter conjugated antibody were compared with results of antibody without molecular reporter conjugation.
The method for testing binding reactivity of molecular reporter conjugated antibody and antigen in 96-well plate consists of the following steps. • a) Prepare 2 μg/mL of antigen in carbonate buffer containing 50 mM carbonate, pH 9.6, and immobilize antigen (100 μL/well) in 96-well plate. • b) Incubate 96-well plate in step 1 at 4° C. for 12-16 hours. • c) Block non-specific binding with 300 μL/well of 2% bovine serum albumin in phosphate-buffered saline containing 0.05% Tween (PBST), and incubate at room temperature for 1 hour. • d) Wash 96-well plates in step 3 with 300 μL/well of PBST for 3 times. • e) Add 100 μL/ well of 2 μg/mL of antibody conjugating molecular reporter (compound 6, compound 8, and compound 14), and incubate at room temperature for 1 hour. • f) Wash 96-well plates in step 5 with 300 μL/well of PBST for 3 times. • g) Add 100 μL/well of horseradish peroxidase labeled antibody specific to mouse antibody (dilution at 1:10,000), and incubate at room temperature for 1 hour. • h) Wash 96-well plates in step 7 with 300 μL/well of PBST for 3 times. • i) Add 100 μL/well of substrate solution for horseradish peroxidase which is 3,3′,5,5′-Tetramethylbenzidine, and incubate at room temperature for 30 minutes. • j) Add 50 μL/well of sulfuric acid (H2SO4) for stop reaction. • k) Measure signals at 450 nm.

melting point [°C]	Compound	binding of antibody conjugating molecular reporter to antigen (FIG. 5) (antigen)	effect of molecular reporter on binding reactivity of antibody compared with antibody without any conjugation (FIG. 5) (antigen)
–	N#Cc1c(C#N)c2ccc3cc(OCCCCCC(=O)O)ccc3c2c2c1ccc1cc(OCCCCCC(=O)O)ccc12 [compound 6, 6,6′-((3,4-dicyanodibenzo[c,g]phenanthrene-8,13-diyl)bis(oxy))dihexanoic acid]	antibody could bind to antigen	did not affect the binding reactivity of antibody
135 to 139	N#Cc1c(C#N)c2c(c3c1CCc1cc(OCCCCCC=O)ccc1-3)-c1ccc(OCCCCCC=O)cc1CC2 [compound 8, 8,13-bis((6-oxohexyl)oxy)-1,2,5,6-tetrahydrodibenzo[c,g]phenanthrene-3,4-dicarbonitrile]	antibody could bind to antigen	did not affect the binding reactivity of antibody
